The numbers were not newly measured in patent US20090175941A1, “Tablet-form slow-release preparation for vertigo” (priority 2005, published 2009), which cites them from elsewhere.

The structures appear in SMILES notation.

Take `C(=C\c1ccccc1)/CN1CCN(C(c2ccccc2)c2ccccc2)CC1` [cinnarizine, 1-benzhydryl-4-trans-cinnamylpiperazine]: the solubility in water result is listed as “approximately 2 mg/100 ml”.
